Laboratory results taken from patent US10233188B2, “CDK2/4/6 inhibitors” (priority 2016, dated 2019).
Each block holds one compound with its values, some of them ahead of it.

What was measured:
CDK6/Cyclin D1 = CDK6/Cyclin D1 (Homo sapiens (Human), UniProt Q00534); test: biochemical; conditions: CDK6_Ki (nM), non-phosphorylated CDK6/Cyclin D1, 2 mM ATP, Morrison fit
CDK2/Cyclin E1 = CDK2/Cyclin E1 (Homo sapiens (Human), UniProt P24941); test: biochemical; conditions: CDK2_Ki (nM), phosphorylated CDK2/Cyclin E1, 150 μM ATP, Morrison tight-binding fit
Experimental: The assay was initiated with the addition of ATP, following a fifteen minutes pre-incubation of enzyme and inhibitor at room temperature in the reaction mixture. The reaction was stopped after 45 minutes at room temperature by the addition of 50 μL of 80 mM EDTA, pH 7.5.

Sequence of CDK6/Cyclin D1 (Q00534 whole entry): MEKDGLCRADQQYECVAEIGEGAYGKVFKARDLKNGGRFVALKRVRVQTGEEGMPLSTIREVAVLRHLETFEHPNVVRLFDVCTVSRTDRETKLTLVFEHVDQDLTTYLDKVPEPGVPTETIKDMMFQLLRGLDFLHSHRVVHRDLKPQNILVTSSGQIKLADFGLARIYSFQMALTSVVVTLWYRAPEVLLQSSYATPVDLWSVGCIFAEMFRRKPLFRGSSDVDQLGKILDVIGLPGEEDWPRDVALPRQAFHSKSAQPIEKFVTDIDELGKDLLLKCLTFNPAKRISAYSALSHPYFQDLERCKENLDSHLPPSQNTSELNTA
Sequence of CDK6/Cyclin D1 (P24385 whole entry partner): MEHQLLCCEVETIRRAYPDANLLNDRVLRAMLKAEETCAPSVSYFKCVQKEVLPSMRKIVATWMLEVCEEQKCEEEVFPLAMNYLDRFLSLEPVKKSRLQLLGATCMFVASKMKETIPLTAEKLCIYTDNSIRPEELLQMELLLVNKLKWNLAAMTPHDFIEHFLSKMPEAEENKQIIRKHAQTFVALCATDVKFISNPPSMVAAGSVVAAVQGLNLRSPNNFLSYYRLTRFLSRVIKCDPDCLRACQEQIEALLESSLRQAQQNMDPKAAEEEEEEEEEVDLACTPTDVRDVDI

SMILES: C[C@]1(O)CCC[C@@H]1n1c(=O)c(CCO)cc2cnc(NC3CCN(S(C)(=O)=O)CC3)nc21 (single isomer, unassigned) [Example 123, (+)-6-(2-hydroxyethyl)-8-[(1R*,2R*)-2-hydroxy-2-methylcyclopentyl]-2-{[1-(methylsulfonyl)piperidin-4-yl]amino}pyrido[2,3-d]pyrimidin-7(8H)-one]
Ki (CDK6/Cyclin D1): 6.14 nM
Ki (CDK2/Cyclin E1): 0.76 nM

SMILES: CNS(=O)(=O)N1CCC(Nc2ncc3cc(F)c(=O)n([C@@H]4CCC[C@@]4(C)O)c3n2)CC1 (single isomer, unassigned) [Example 124, (−)-4-({6-fluoro-8-[(1R*,2R*)-2-hydroxy-2-methylcyclopentyl]-7-oxo-7,8-dihydropyrido[2,3-d]pyrimidin-2-yl}amino)-N-methylpiperidine-1-sulfonamide]
Ki (CDK6/Cyclin D1): 3.84 nM
Ki (CDK2/Cyclin E1): 0.69 nM

SMILES: CNS(=O)(=O)N1CCC(Nc2ncc3cc(F)c(=O)n([C@H]4CCC[C@]4(C)O)c3n2)CC1 (single isomer, unassigned) [Example 125, (+)-4-({6-fluoro-8-[(1R*,2R*)-2-hydroxy-2-methylcyclopentyl]-7-oxo-7,8-dihydropyrido[2,3-d]pyrimidin-2-yl}amino)-N-methylpiperidine-1-sulfonamide]
Ki (CDK6/Cyclin D1): 36.6 nM
Ki (CDK2/Cyclin E1): 6.21 nM

SMILES: CNS(=O)(=O)N1CCC(Nc2ncc3cc(Cl)c(=O)n([C@@H]4CCC[C@@]4(C)O)c3n2)CC1 (single isomer, unassigned) [Example 126, (−)-4-({6-chloro-8-[(1R*,2R*)-2-hydroxy-2-methylcyclopentyl]-7-oxo-7,8-dihydropyrido[2,3-d]pyrimidin-2-yl}amino)-N-methylpiperidine-1-sulfonamide]
Ki (CDK6/Cyclin D1): 0.96 nM
Ki (CDK2/Cyclin E1): 0.2 nM

SMILES: CNS(=O)(=O)N1CCC(Nc2ncc3cc(Cl)c(=O)n([C@H]4CCC[C@]4(C)O)c3n2)CC1 (single isomer, unassigned) [Example 127, (+)-4-({6-chloro-8-[(1R*,2R*)-2-hydroxy-2-methylcyclopentyl]-7-oxo-7,8-dihydropyrido[2,3-d]pyrimidin-2-yl}amino)-N-methylpiperidine-1-sulfonamide]
Ki (CDK6/Cyclin D1): 12.6 nM
Ki (CDK2/Cyclin E1): 3.46 nM

SMILES: C[C@@]1(O)CCC[C@H]1n1c(=O)c(Cl)cc2cnc(NC3CCN(S(N)(=O)=O)CC3)nc21 (single isomer, unassigned) [Example 128, (−)-4-({6-chloro-8-[(1R*,2R*)-2-hydroxy-2-methylcyclopentyl]-7-oxo-7,8-dihydropyrido[2,3-d]pyrimidin-2-yl}amino)piperidine-1-sulfonamide]
Ki (CDK6/Cyclin D1): 0.53 nM
Ki (CDK2/Cyclin E1): 0.12 nM

SMILES: C[C@]1(O)CCC[C@@H]1n1c(=O)c(Cl)cc2cnc(NC3CCN(S(N)(=O)=O)CC3)nc21 (single isomer, unassigned) [Example 129, (+)-4-({6-chloro-8-[(1R*,2R*)-2-hydroxy-2-methylcyclopentyl]-7-oxo-7,8-dihydropyrido[2,3-d]pyrimidin-2-yl}amino)piperidine-1-sulfonamide]
Ki (CDK6/Cyclin D1): 5.73 nM
Ki (CDK2/Cyclin E1): 1.47 nM

SMILES: CNS(=O)(=O)N1CCC(Nc2ncc3cc(C(F)F)c(=O)n([C@@H]4CCC[C@@]4(C)O)c3n2)CC1 (single isomer, unassigned) [Example 130, (−)-4-({6-(difluoromethyl)-8-[(1R*,2R*)-2-hydroxy-2-methylcyclopentyl]-7-oxo-7,8-dihydropyrido[2,3-d]pyrimidin-2-yl}amino)-N-methylpiperidine-1-sulfonamide]
Ki (CDK6/Cyclin D1): 0.43 nM
Ki (CDK2/Cyclin E1): 0.17 nM

SMILES: CNS(=O)(=O)N1CCC(Nc2ncc3cc(C(F)F)c(=O)n([C@H]4CCC[C@]4(C)O)c3n2)CC1 (single isomer, unassigned) [Example 131, (+)-4-({6-(difluoromethyl)-8-[(1R*,2R*)-2-hydroxy-2-methylcyclopentyl]-7-oxo-7,8-dihydropyrido[2,3-d]pyrimidin-2-yl}amino)-N-methylpiperidine-1-sulfonamide]
Ki (CDK6/Cyclin D1): 23.1 nM
Ki (CDK2/Cyclin E1): 3.24 nM

SMILES: CS(=O)(=O)N1CCC(Nc2ncc3cc(C(F)F)c(=O)n([C@@H]4CC[C@@H](O)C4)c3n2)CC1 (single isomer, unassigned) [Example 133, (−)-6-(difluoromethyl)-8-[(1R*,3R*)-3-hydroxycyclopentyl]-2-{[1-(methylsulfonyl)piperidin-4-yl]amino}pyrido[2,3-d]pyrimidin-7(8H)-one]
Ki (CDK6/Cyclin D1): 0.94 nM
Ki (CDK2/Cyclin E1): 2.37 nM

SMILES: CS(=O)(=O)N1CC[C@H](Nc2ncc3cc(CCO)c(=O)n(C4CCCC4)c3n2)[C@@H](F)C1 (single isomer, unassigned) [Example 156, (−)-8-cyclopentyl-2-{[(3S*,4S*)-3-fluoro-1-(methylsulfonyl)piperidin-4-yl]amino}-6-(2-hydroxyethyl)pyrido[2,3-d]pyrimidin-7(8H)-one]
Ki (CDK6/Cyclin D1): 1.94 nM
Ki (CDK2/Cyclin E1): 1.4 nM

SMILES: COCCc1cc2cnc(N[C@H]3CCN(S(C)(=O)=O)C[C@@H]3F)nc2n(C2CCCC2)c1=O (single isomer, unassigned) [Example 158, (−)-8-cyclopentyl-2-{[(3S*,4S*)-3-fluoro-1-(methylsulfonyl)piperidin-4-yl]amino}-6-(2-methoxyethyl)pyrido[2,3-d]pyrimidin-7(8H)-one]
Ki (CDK6/Cyclin D1): 0.66 nM
Ki (CDK2/Cyclin E1): 3.89 nM

SMILES: CS(=O)(=O)N1CC[C@H](Nc2ncc3cc(CC(N)=O)c(=O)n(C4CCCC4)c3n2)[C@@H](F)C1 (single isomer, unassigned) [Example 160, (−)-2-(8-cyclopentyl-2-{[(3S*,4S*)-3-fluoro-1-(methylsulfonyl)piperidin-4-yl]amino}-7-oxo-7,8-dihydropyrido[2,3-d]pyrimidin-6-yl)acetamide]
Ki (CDK6/Cyclin D1): 3.55 nM
Ki (CDK2/Cyclin E1): 4.07 nM

SMILES: Cc1cc2cnc(NC3CCN(S(C)(=O)=O)CC3)nc2n([C@@H]2CC[C@@H](O)C2)c1=O (single isomer, unassigned) [Example 167, (−)-8-[(1R*,3R*)-3-hydroxycyclopentyl]-6-methyl-2-{[1-(methylsulfonyl)piperidin-4-yl]amino}pyrido[2,3-d]pyrimidin-7(8H)-one]
Ki (CDK6/Cyclin D1): 1.63 nM
Ki (CDK2/Cyclin E1): 1.47 nM

SMILES: Cc1cc2cnc(NC3CCN(S(C)(=O)=O)CC3)nc2n([C@H]2CC[C@H](O)C2)c1=O (single isomer, unassigned) [Example 168, (+)-8-[(1R*,3R*)-3-hydroxycyclopentyl]-6-methyl-2-{[1-(methylsulfonyl)piperidin-4-yl]amino}pyrido[2,3-d]pyrimidin-7(8H)-one]
Ki (CDK6/Cyclin D1): 1.34 nM
Ki (CDK2/Cyclin E1): 1.31 nM

SMILES: CS(=O)(=O)N1CCC(Nc2ncc3cc(Cl)c(=O)n([C@H]4CC[C@H](O)C4)c3n2)CC1 (single isomer, unassigned) [Example 169, (+)-6-chloro-8-[(1R*,3R*)-3-hydroxycyclopentyl]-2-{[1-(methylsulfonyl)piperidin-4-yl]amino}pyrido[2,3-d]pyrimidin-7(8H)-one]
Ki (CDK6/Cyclin D1): 1.11 nM
Ki (CDK2/Cyclin E1): 2.76 nM

Now from value to compound:

Ki (CDK6/Cyclin D1): 1.82 nM
Ki (CDK2/Cyclin E1): 6.03 nM
SMILES: CS(=O)(=O)N1CCC(Nc2ncc3cc(Cl)c(=O)n([C@@H]4CC[C@@H](O)C4)c3n2)CC1 (single isomer, unassigned) [Example 170, (−)-6-chloro-8-[(1R*,3R*)-3-hydroxycyclopentyl]-2-{[1-(methylsulfonyl)piperidin-4-yl]amino}pyrido[2,3-d]pyrimidin-7(8H)-one]

Ki (CDK6/Cyclin D1): 1.55 nM
Ki (CDK2/Cyclin E1): 1.73 nM
SMILES: CS(=O)(=O)N1CCC(Nc2ncc3cc(CC(F)F)c(=O)n([C@H]4CC[C@H](O)C4)c3n2)CC1 (single isomer, unassigned) [Example 171, (+)-6-(2,2-difluoroethyl)-8-[(1R*,3R*)-3-hydroxycyclopentyl]-2-{[1-(methylsulfonyl)piperidin-4-yl]amino}pyrido[2,3-d]pyrimidin-7(8H)-one]

Ki (CDK6/Cyclin D1): 2.08 nM
Ki (CDK2/Cyclin E1): 4.38 nM
SMILES: CS(=O)(=O)N1CCC(Nc2ncc3cc(CC(F)F)c(=O)n([C@@H]4CC[C@@H](O)C4)c3n2)CC1 (single isomer, unassigned) [Example 172, (−)-6-(2,2-difluoroethyl)-8-[(1R*,3R*)-3-hydroxycyclopentyl]-2-{[1-(methylsulfonyl)piperidin-4-yl]amino}pyrido[2,3-d]pyrimidin-7(8H)-one]

Ki (CDK6/Cyclin D1): 0.14 nM
Ki (CDK2/Cyclin E1): 1.22 nM
SMILES: CC(=O)c1c(C)c2cnc(NC3CCN(S(C)(=O)=O)CC3)nc2n([C@@H]2CCC[C@@]2(C)O)c1=O (single isomer, unassigned) [Example 177, (−)-6-acetyl-8-[(1R*,2R*)-2-hydroxy-2-methylcyclopentyl]-5-methyl-2-{[1-(methylsulfonyl)piperidin-4-yl]amino}pyrido[2,3-d]pyrimidin-7(8H)-one]

Ki (CDK6/Cyclin D1): 2.18 nM
Ki (CDK2/Cyclin E1): 0.38 nM
SMILES: C[C@@]1(O)CCC[C@H]1n1c(=O)c(CC(N)=O)cc2cnc(NC3CCN(S(C)(=O)=O)CC3)nc21 (single isomer, unassigned) [Example 179, (−)-2-(8-[(1R*,2R*)-2-hydroxy-2-methylcyclopentyl]-2-{[1-(methylsulfonyl)piperidin-4-yl]amino}-7-oxo-7,8-dihydropyrido[2,3-d]pyrimidin-6-yl)acetamide]

Ki (CDK6/Cyclin D1): 28.9 nM
Ki (CDK2/Cyclin E1): 3.76 nM
SMILES: C[C@]1(O)CCC[C@@H]1n1c(=O)c(CC(N)=O)cc2cnc(NC3CCN(S(C)(=O)=O)CC3)nc21 (single isomer, unassigned) [Example 180, (+)-2-(8-[(1R*,2R*)-2-hydroxy-2-methylcyclopentyl]-2-{[1-(methylsulfonyl)piperidin-4-yl]amino}-7-oxo-7,8-dihydropyrido[2,3-d]pyrimidin-6-yl)acetamide]

Ki (CDK6/Cyclin D1): 0.85 nM
Ki (CDK2/Cyclin E1): 1.32 nM
SMILES: Cc1cc2cnc(NC3CCN(S(=O)(=O)C(F)(F)F)CC3)nc2n([C@@H]2CCC[C@@]2(C)O)c1=O (single isomer, unassigned) [Example 181, (−)-8-[(1R*,2R*)-2-hydroxy-2-methylcyclopentyl]-6-methyl-2-({1-[(trifluoromethyl)sulfonyl]piperidin-4-yl}amino)pyrido[2,3-d]pyrimidin-7(8H)-one]
